{"source": "patent US8486960B2", "about": "“Formulations and methods for vascular permeability-related diseases or conditions” (Santen Pharmaceutical Co., Ltd., priority 2006, dated 2013)", "assay": "Rapamycin levels in hamster cheek tissue homogenate by LC/MS", "format": "in vivo, golden Syrian hamsters", "conditions": "for Rapamycin assayed concentration, Average: hamster cheek pouch, all samples", "source_text": "Upon sacrifice of the animals, samples of both of the Hamster cheeks were obtained and frozen at −80 degrees Celsius. The samples were labeled as to the amount of intraperitoneal dose received, and whether they were right (studied with chamber) or left."}
{"smiles": "CO[C@H]1C[C@@H]2CC[C@@H](C)[C@@](O)(O2)C(=O)C(=O)N2CCCC[C@H]2C(=O)O[C@H]([C@H](C)C[C@@H]2CC[C@@H](O)[C@H](OC)C2)CC(=O)[C@H](C)/C=C(\\C)[C@@H](O)[C@@H](OC)C(=O)[C@H](C)C[C@H](C)/C=C/C=C/C=C/1C", "note": "[rapamycin]", "values": [{"measurement": "average tissue level of rapamycin in the hamster cheek pouch", "setting": "0.1 mg/kg treatment group", "value": 7.37, "unit": "ng/g"}, {"measurement": "average tissue level of rapamycin in the hamster cheek pouch", "setting": "0.5 mg/kg treatment group", "value": 11.01, "unit": "ng/g"}, {"measurement": "average tissue level of rapamycin in the hamster cheek pouch", "setting": "2.0 mg/kg treatment group", "value": 40.83, "unit": "ng/g"}, {"measurement": "average tissue level of rapamycin in the hamster cheek pouch", "setting": "10 mg/kg treatment group", "value": 55.15, "unit": "ng/g"}, {"measurement": "Rapamycin assayed concentration, Average", "setting": "dosing 0.1 mg/kg ip", "value": "7.37 ng/g or pg/mg"}, {"measurement": "Rapamycin assayed concentration, Average", "setting": "dosing 0.5 mg/kg ip", "value": "11.01 ng/g or pg/mg"}, {"measurement": "Rapamycin assayed concentration, Average", "setting": "dosing 2 mg/kg ip", "value": "40.83 ng/g or pg/mg"}, {"measurement": "Rapamycin assayed concentration, Average", "setting": "dosing 10 mg/kg ip", "value": "55.15 ng/g or pg/mg"}]}
